Measured values reported in US20110135742A1, “CONTROLLED RELEASE ENCAPSULATED ANTI-BACTERIAL AND ANTI-INFLAMMATORY NANOPARTICLES” (The Regents of the University of California, priority 2006, published 2011).

Columns and labels:
P. acnes [1] = assay: CFU assay against P. acnes; type: cell-based; conditions: FIG. 4
IL-12p40 = assay: P. acnes stimulated IL-12p40 production by primary human monocytes; type: cell-based; conditions: primary human monocytes stimulated with P. acnes; dilutions 1, 10^-1, 10^-2; FIG. 5
eukaryotic cells = assay: MTT assay; type: cell-based; conditions: FIG. 6
P. acnes [2] = assay: Scanning electron microscopy of P. acnes; type: cell-based; conditions: FIG. 7
[3] = recorded, background statement; cited from earlier work

Compound	killing of P. acnes, benzoyl peroxide un-encapsulated or nanoparticle encapsulated (P. acnes [1])	inhibition of IL-12p40 production (IL-12p40)	toxicity to eukaryotic cells (eukaryotic cells)	physical changes in the bacteria, compared with control (P. acnes [2])	success as acne medication [3]
O=C(OOC(=O)c1ccccc1)c1ccccc1 [benzoyl peroxide]	kills bacteria	inhibited	not toxic	destroy the bacteria and kill P. acnes	–
CC1=C(/C=C/C(C)=C/C=C/C(C)=C\C(=O)O)C(C)(C)CCC1 [Isotretinoin]	–	–	–	–	80-90%
